Test results taken from the supplement of paper PMC11061612.

Tests used:
[1] = system: OE19 (Esophageal Adenocarcinoma); test: Bliss excess, mean over the matrix (fraction); higher = more synergy
How it was run: (§1)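 Cell lines grown in DMEM/F12 or RPMI with 10% FBS were plated in 1536-well plates and held 24 hours at 37°C, 5% CO2 before 72 hours of exposure to two-drug dose matrices, with DMSO typically at 0.2%. CellTiter-Glo 2.0 luminescence gave viability, which was converted to inhibition. Vehicle wells were set to 0 and blank wells to 1. Combination Emax is the second-highest inhibition in the matrix, and Bliss excess is the observed combination effect minus the expected EA + EB − EA·EB, where EA and EB are the single-agent effects.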

[2] = system: OSC-20 (Oral Cavity Carcinoma); test: as above
How it was run: as §1

[3] = system: NUGC-3 (Gastric Carcinoma); test: as above
How it was run: as §1

[4] = system: JVM-3 (B-Cell Non-Hodgkin's Lymphoma); test: as above
How it was run: as §1

[5] = system: HGC-27 (Gastric Carcinoma); test: as above
How it was run: as §1

[6] = system: SCC-15 (Oral Cavity Carcinoma); test: as above
How it was run: as §1

[7] = system: HOP-62 (Lung Adenocarcinoma); test: as above
How it was run: as §1

[8] = system: NCI-H1915 (Non-Small Cell Lung Carcinoma); test: as above
How it was run: as §1

[9] = system: KMOE-2 (Acute Myeloid Leukemia); test: as above
How it was run: as §1

[10] = system: HSC-4 (Oral Cavity Carcinoma); test: as above
How it was run: as §1

[11] = system: VA-ES-BJ (Other Solid Carcinomas); test: as above
How it was run: as §1

[12] = system: TE-1 (Esophageal Squamous Cell Carcinoma); test: as above
How it was run: as §1

[13] = system: PWR-1E (Non-Cancerous); test: as above
How it was run: as §1

[14] = system: OE19 (Esophageal Adenocarcinoma); test: combination Emax (second highest fraction inhibited in the dose matrix, 72 h); higher = more inhibition; extreme values may be limits of the assay
How it was run: as §1

[15] = system: OSC-20 (Oral Cavity Carcinoma); test: as above
How it was run: as §1

[16] = system: SCC-15 (Oral Cavity Carcinoma); test: as above
How it was run: as §1

[17] = system: NCI-H1915 (Non-Small Cell Lung Carcinoma); test: as above
How it was run: as §1

[18] = system: HSC-4 (Oral Cavity Carcinoma); test: as above
How it was run: as §1

[19] = system: SU8686 (Pancreatic Carcinoma); test: as above
How it was run: as §1

[20] = system: PWR-1E (Non-Cancerous); test: as above
How it was run: as §1
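Throughout, for Bliss excess, mean over the matrix: after 72 h of two-drug dosing.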

Structure (SMILES) | Bliss excess [1] | Bliss excess [2] | Bliss excess [3] | Bliss excess [4] | Bliss excess [5] | Bliss excess [6] | Bliss excess [7] | Bliss excess [8] | Bliss excess [9] | Bliss excess [10] | Bliss excess [11] | Bliss excess [12] | Bliss excess [13] | combination Emax [14] | combination Emax [15] | combination Emax [16] | combination Emax [17] | combination Emax [18] | combination Emax [19] | combination Emax [20]
CN(CCO)CC[C@H](CSc1ccccc1)Nc1ccc(S(=O)(=O)NC(=O)c2ccc(N3CCC([C@@H](O)c4ccccc4-c4ccc(Cl)cc4)CC3)cc2)cc1S(=O)(=O)C(F)(F)F [AZD4320] + C1CN(CCC1(C(=O)N[C@@H](CCO)C2=CC=C(C=C2)Cl)N)C3=NC=NC4=C3C=CN4 [Capivasertib] (first compound max 1 µM, 7x7, partner max 3 µM) | -0.0479 | -0.0513 | -0.039 | -0.0162 | -0.0252 | -0.0606 | -0.0414 | -0.0459 | -0.0435 | -0.0269 | -0.0376 | -0.0292 | -0.0067 | 0.333 | 0.0937 | 0.14 | 0.116 | 0.32 | 0.0053 | 0.252
CN(CCO)CC[C@H](CSc1ccccc1)Nc1ccc(S(=O)(=O)NC(=O)c2ccc(N3CCC([C@@H](O)c4ccccc4-c4ccc(Cl)cc4)CC3)cc2)cc1S(=O)(=O)C(F)(F)F [AZD4320] + C=CCn1c(=O)c2cnc(Nc3ccc(N4CCN(C)CC4)cc3)nc2n1-c1cccc(C(C)(C)O)n1 [AZD1775] (first compound max 1 µM, partner max 1 µM) | 0.0072 | -0.0933 | -0.0346 | -0.101 | -0.018 | 0.0336 | -0.0356 | 0.0125 | 0.0656 | 0.023 | 0.006 | -0.0034 | -0.0111 | 0.33 | 0.119 | 0.551 | 0.853 | 0.585 | 0.238 | 0.338
CN(CCO)CC[C@H](CSc1ccccc1)Nc1ccc(S(=O)(=O)NC(=O)c2ccc(N3CCC([C@@H](O)c4ccccc4-c4ccc(Cl)cc4)CC3)cc2)cc1S(=O)(=O)C(F)(F)F [AZD4320] + CCN(CCO)CCCOc1ccc2c(Nc3cc(CC(=O)Nc4cccc(F)c4)[nH]n3)ncnc2c1 [AZD2811] (first compound max 1 µM, 7x7, partner max 1 µM) | -0.0349 | -0.062 | 0.0077 | 0.165 | 0.032 | 0.0101 | -0.0197 | 0.0393 | 0.0171 | -0.0335 | -0.0259 | 0.0794 | 0.0514 | 0.854 | 0.291 | 0.346 | 0.31 | 0.517 | 0.155 | 0.843
CN(CCO)CC[C@H](CSc1ccccc1)Nc1ccc(S(=O)(=O)NC(=O)c2ccc(N3CCC([C@@H](O)c4ccccc4-c4ccc(Cl)cc4)CC3)cc2)cc1S(=O)(=O)C(F)(F)F [AZD4320] + C[C@@H]1COCCN1C2=NC(=NC(=C2)C3(CC3)[S@](=N)(=O)C)C4=C5C=CNC5=NC=C4 [AZD6738] (first compound max 1 µM, 7x7, partner max 10 µM) | -0.0789 | -0.0694 | -0.0445 | -0.027 | -0.0321 | 0.0475 | -0.0483 | -0.044 | -0.0399 | 0.12 | -0.012 | -0.004 | -0.0313 | 0.726 | 0.358 | 0.709 | 0.529 | 0.927 | 0.205 | 0.971
CN(CCO)CC[C@H](CSc1ccccc1)Nc1ccc(S(=O)(=O)NC(=O)c2ccc(N3CCC([C@@H](O)c4ccccc4-c4ccc(Cl)cc4)CC3)cc2)cc1S(=O)(=O)C(F)(F)F [AZD4320] + C[C@@H](Nc1cc(F)cc(F)c1)c1cc(C(=O)N(C)C)cc2c(=O)cc(N3CCOCC3)oc12 [AZD8186] (first compound max 1 µM, 7x7, partner max 3 µM) | 0.0201 | 0.0146 | -0.0383 | 0.0456 | -0.0272 | -0.0179 | -0.0226 | 0.0202 | 0.0407 | -0.12 | 0.0393 | -0.0549 | -0.0097 | 0.489 | 0.36 | 0.447 | 0.455 | 0.852 | 0.216 | 0.592
CN(CCO)CC[C@H](CSc1ccccc1)Nc1ccc(S(=O)(=O)NC(=O)c2ccc(N3CCC([C@@H](O)c4ccccc4-c4ccc(Cl)cc4)CC3)cc2)cc1S(=O)(=O)C(F)(F)F [AZD4320] + Cc1cc2ncnn2cc1Nc1ncc2c(n1)n(C1CCOCC1)c(=O)n2C [AZD7648] (first compound max 1 µM, 7x7, partner max 10 µM) | -0.0219 | -0.0548 | -0.0234 | -0.0214 | -0.0473 | -0.0152 | -0.0479 | -0.0254 | -0.0058 | -0.0592 | -0.0364 | -0.0443 | -0.0352 | 0.415 | 0.0714 | 0.265 | 0.223 | 0.129 | 0.0978 | 0.0822
CN(CCO)CC[C@H](CSc1ccccc1)Nc1ccc(S(=O)(=O)NC(=O)c2ccc(N3CCC([C@@H](O)c4ccccc4-c4ccc(Cl)cc4)CC3)cc2)cc1S(=O)(=O)C(F)(F)F [AZD4320] + Cn1cnc2c(F)c(Nc3ccc(Br)cc3Cl)c(C(=O)NOCCO)cc21 [Selumetinib] (first compound max 1 µM, 7x7, partner max 3 µM) | -0.0202 | 0.0488 | 0.104 | -0.0225 | 0.0579 | 0.042 | -0.0508 | 0.0324 | 0.0415 | 0.0732 | – | 0.0819 | 0.0024 | 0.314 | 0.321 | 0.548 | 0.583 | 0.797 | 0.228 | 0.601
Cc1cc2ncnn2cc1Nc1ncc2c(n1)n(C1CCOCC1)c(=O)n2C [AZD7648] + C=CCn1c(=O)c2cnc(Nc3ccc(N4CCN(C)CC4)cc3)nc2n1-c1cccc(C(C)(C)O)n1 [AZD1775] (first compound max 10 µM, partner max 1 µM) | -0.0099 | -0.0252 | 0.0165 | -0.0686 | -0.012 | 0.0938 | -0.0093 | -0.0738 | -0.0329 | -0.0082 | -0.008 | -0.0045 | 0.0256 | 0.465 | 0.354 | 0.439 | 0.553 | 0.41 | 0.224 | 0.562
Cc1cc2ncnn2cc1Nc1ncc2c(n1)n(C1CCOCC1)c(=O)n2C [AZD7648] + CCN(CCO)CCCOc1ccc2c(Nc3cc(CC(=O)Nc4cccc(F)c4)[nH]n3)ncnc2c1 [AZD2811] (first compound max 10 µM, 7x7, partner max 1 µM) | 0.0151 | -0.0209 | -0.0046 | 0.0791 | -0.0685 | 0.071 | 0.0126 | -0.0444 | 0.0325 | 0.0036 | -0.0034 | -0.0535 | 0.0299 | 0.774 | 0.454 | 0.458 | 0.252 | 0.188 | 0.139 | 0.588
Cc1nc(Nc2ncc(C(=O)Nc3c(C)cccc3Cl)s2)cc(N2CCN(CCO)CC2)n1 [Dasatinib] + CC(=O)Nc1cccc(-n2c(=O)n(C3CC3)c(=O)c3c(Nc4ccc(I)cc4F)n(C)c(=O)c(C)c32)c1 [Trametinib] (first compound max 2 µM, 7x7, partner max 1 µM) | -0.063 | -0.0148 | 0.0374 | – | -0.0355 | -0.0213 | -0.0824 | 0.0564 | -0.0125 | -0.0681 | -0.033 | -0.0067 | 0.0481 | 0.797 | 0.434 | 0.739 | 1 | 0.423 | 0.388 | 0.897
COc1cc2ncnc(Nc3ccc(F)c(Cl)c3)c2cc1OCCCN1CCOCC1 [Gefitinib] + CC(C)n1c(=O)n(C)c2cnc3cc(F)c(-c4ccc(OCCCN5CCCCC5)nc4)cc3c21 [AZD1390] (first compound max 10 µM, 7x7, partner max 0.3 µM) | -0.0181 | -0.0691 | -0.0515 | – | -0.0261 | -0.0571 | -0.0751 | -0.0433 | -0.0589 | -0.0847 | -0.0513 | -0.0471 | -0.0234 | 0.943 | 0.064 | 0.39 | 0.213 | 0.0642 | 0.082 | 0.205
C[C@@H](c1ccc2nccn2c1)n1nnc2ncc(-c3cnn(C)c3)nc21 [Savolitinib] + CC1(C)CCC(CN2CCN(c3ccc(C(=O)NS(=O)(=O)c4ccc(NCC5CCOCC5)c([N+](=O)[O-])c4)c(Oc4cnc5[nH]ccc5c4)c3)CC2)=C(c2ccc(Cl)cc2)C1 [Venetoclax] (first compound max 1 µM, 7x7, partner max 1 µM) | -0.0377 | -0.0521 | -0.0666 | – | -0.0158 | -0.0613 | -0.0939 | -0.0456 | -0.0414 | -0.0776 | -0.0433 | -0.0546 | -0.034 | 0.166 | 0.149 | 0.191 | 0.145 | 0 | 0.0716 | 0.0879
C[C@@H](c1ccc2nccn2c1)n1nnc2ncc(-c3cnn(C)c3)nc21 [Savolitinib] + Cc1c2c(nn1C)CSCc1cc(n(C)n1)CSc1cc(c3ccccc3c1)OCCCc1c(C(=O)O)n(C)c3c-2c(Cl)ccc13 [AZD5991] (first compound max 1 µM, 7x7, partner max 1 µM) | -0.093 | -0.0239 | -0.0379 | – | 0.0154 | -0.0222 | -0.0754 | -0.0587 | -0.0312 | -0.0864 | -0.0299 | -0.0748 | -0.0664 | 0.235 | 0.137 | 0.186 | 0.0983 | 0.236 | 0.137 | 0.186
